Test results published in patent USRE47786E1, “Haloalkyl heteroaryl benzamide compounds” (Romark Laboratories, L.C., priority 2009, dated 2019).

How the values were obtained:
[1] = tested on: HBV; assay: HBV extracellular virion antiviral assay in 2.2.15 cells; format: cell-based; conditions: Hepatitis B virus, extracellular virion HBV DNA, nine daily doses
Procedure: (§1) HBV antiviral assays were conducted as previous described [Korba and Gerin, Antiviral Res. 19:55 (1992 Confluent cultures of 2.2.15 cells were maintained on 96-well flat-bottomed tissue culture plates (confluence in this culture system is required for active, high levels of HBV replication equivalent to that observed in chronically-infected individuals [Sells et al. J. Virol. 62, 2836-2844 (1988); Korba and Gerin (1992)]. Cultures were treated with nine consecutive daily doses of the test compounds. HBV DNA levels were assessed by quantitative blot hybridization 24 hr. after the last treatment. Cytotoxicity was assessed by uptake of neutral red dye 24 hr. following the last treatment.
EC50, EC90 and CC50 values (±standard deviations [S.D.]) were calculated by linear regression analysis using data combined from all treated cultures (Korba and Gerin, 1992; Okuse et al., 2005). […] CC50 is the drug concentration at which a 2-fold lower level of neutral red dye uptake (relative to the average levels in untreated cultures) was observed. Selectivity index (S.I.) was calculated as CC50/EC90 for HBV assays and CC50/EC50 for HCV assays. EC90 values were used for calculation of the S.I. in HBV assays since at least a 3-fold depression of HBV DNA levels is typically required to achieve statistical significance in this assay system (Korba and Gerin, 1992). For combination treatments, EC50, EC90, CC50 and S.I. are presented for the first compound listed. The molar ratio of the compounds in each combination is also indicated.

[2] = Cytotoxicity by neutral red dye uptake in HBV assay cultures; format: cell-based; conditions: human, confluent 2.2.15 cells (HBV-replicating), nine daily doses
Procedure: as §1
(§2) EC50, EC90 and CC50 values (±standard deviations [S.D.]) were calculated by linear regression analysis using data combined from all treated cultures (Korba and Gerin, 1992; Okuse et al., 2005). EC50 and EC90 are drug concentrations at which a 2-fold, or a 10-fold depression of intracellular HBV DNA or HCV RNA (relative to the average levels in untreated cultures), respectively, was observed. CC50 is the drug concentration at which a 2-fold lower level of neutral red dye uptake (relative to the average levels in untreated cultures) was observed. Selectivity index (S.I.) was calculated as CC50/EC90 for HBV assays and CC50/EC50 for HCV assays. EC90 values were used for calculation of the S.I. in HBV assays since at least a 3-fold depression of HBV DNA levels is typically required to achieve statistical significance in this assay system (Korba and Gerin, 1992). For combination treatments, EC50, EC90, CC50 and S.I. are presented for the first compound listed. The molar ratio of the compounds in each combination is also indicated.

[3] = tested on: Hep-2 cells; conditions: human
[4] = tested on: HCV replicon cell line, AVAS (sub-genomic CONI, genotype 1b); assay: Primary HCV replicon cell assay, genotype 1B; format: cell-based; conditions: Hepatitis C virus, 72 h
Procedure: (§3) Antiviral activity of test compounds was assessed in a 3-day assay using the stably-expressing HCV replicon cell line, AVAS (sub-genomic CONI, genotype 1b) [Blight et al., Science 290, 1972-1974 (2000)] maintained as sub-confluent cultures on 96-well plates as previously described (Okuse et al., Antiviral Research 65, 23-34 (2005)]. Antiviral activity was determined by blot hybridization analysis of intracellular HCV RNA (normalized to the level of cellular B-actin RNA in each culture sample) and cytotoxicity was assessed by neutral red dye uptake after 3 days of treatment. Additional studies were performed using Huh7 cells containing another HCV replicon, H/FL-Neo, a genotype 1a full length construct [Blight et al., J. Virol. 77, 3181-3190 (2003)]. For studies involving human serum, standard culture medium (which contains 10% fetal bovine serum) and assay conditions were maintained.
as §2

[5] = Cytotoxicity by neutral red dye uptake in HCV replicon cells; format: cell-based; conditions: human, HCV replicon cell line AVAS (sub-genomic CONI), HCV replicon cells genotype 1B
Procedure: as §3, §2

[6] = tested on: HeLa R19 cells; assay: Toxicity (MTT) in HeLa R19 cells (Rhinovirus section)
[7] = tested on: HeLa R19 cells; assay: Toxicity (MTT) in HeLa R19 cells (Adenovirus section)
[8] = tested on: 37RC cells; assay: Toxicity (MTT) in 37RC cells
[9] = tested on: MDCK cells; assay: Toxicity (MTT) in MDCK cells
[10] = tested on: MA104 cells; assay: Toxicity (MTT) in MA104 cells (Rotavirus SA11 section)
[11] = tested on: MA104 cells; assay: Toxicity (MTT) in MA104 cells (Rotavirus WAG8P1 section)
[12] = tested on: A72 cells; assay: Toxicity (MTT) in A72 cells
[13] = tested on: HeLa cells; assay: Toxicity (MTT) in HeLa cells
[14] = tested on: MA104 cells; assay: Toxicity (MTT) in MA104 cells (Rhabdovirus section)

CC(=O)Oc1ccccc1C(=O)Nc1nc(C(F)(F)F)cs1 [Compound 3]
EC50 [1]: > 4 µM | EC90 [1]: > 4 µM | CC50 at 9 days [2]: > 100 µM | Toxicity LD50 (MTT) [3]: >50 µg/mL

CC(=O)Oc1ccccc1C(=O)Nc1ncc(C(F)(F)F)s1 [Compound 1]
EC50 [1]: 3.2 to 4 µM | EC90 [1]: > 4 µM | CC50 at 9 days [2]: > 100 µM | EC50 [4]: < 5000 nM | EC90 [4]: > 5 µM | CC50 at 3 days [5]: 3.7 µM | Toxicity LD50 (MTT) [3]: >50 µg/mL | Toxicity LD50 (MTT) [6]: >50 µg/mL | Toxicity LD50 (MTT) [7]: 4 µg/mL

CC(=O)Oc1ccccc1C(=O)Nc1ncc([N+](=O)[O-])s1 [Nitazoxanide, reference compound]
EC50 [1]: 0.05 to 0.2 µM | EC90 [1]: 0.8 to 3.2 µM | CC50 at 9 days [2]: > 100 µM | EC50 [4]: 50 to 500 nM | EC90 [4]: 0.5 to 10 µM | CC50 at 3 days [5]: 32 µM | Toxicity LD50 (MTT) [3]: >50 µg/mL | Toxicity LD50 (MTT) [8]: >50 µg/mL | Toxicity LD50 (MTT) [9]: >50 µg/mL | Toxicity LD50 (MTT) [6]: >50 µg/mL | Toxicity LD50 (MTT) [7]: >50 µg/mL | Toxicity LD50 (MTT) [10]: >50 µg/mL | Toxicity LD50 (MTT) [11]: >50 µg/mL

O=C(Nc1nc(C(F)(F)F)cs1)c1ccccc1O [Compound 4]
EC50 [1]: > 4 µM | EC90 [1]: > 4 µM | CC50 at 9 days [2]: > 100 µM | Toxicity LD50 (MTT) [3]: >50 µg/mL

O=C(Nc1ncc([N+](=O)[O-])s1)c1ccccc1O [Tizoxanide]
EC50 [1]: 0.05 to 0.2 µM | EC90 [1]: 0.8 to 3.2 µM | CC50 at 9 days [2]: > 100 µM | EC50 [4]: 50 to 500 nM | EC90 [4]: 0.5 to 10 µM | CC50 at 3 days [5]: 15 µM | Toxicity LD50 (MTT) [3]: 50 µg/mL | Toxicity LD50 (MTT) [12]: >50 µg/mL | Toxicity LD50 (MTT) [8]: >50 µg/mL | Toxicity LD50 (MTT) [9]: >50 µg/mL | Toxicity LD50 (MTT) [13]: 3 µg/mL | Toxicity LD50 (MTT) [14]: 50 µg/mL | Toxicity LD50 (MTT) [6]: >50 µg/mL | Toxicity LD50 (MTT) [7]: 0.8 µg/mL | Toxicity LD50 (MTT) [10]: >50 µg/mL | Toxicity LD50 (MTT) [11]: >50 µg/mL

O=C(Nc1nnc(C(F)(F)F)s1)c1ccccc1O [Compound 6]
EC50 [1]: > 4 µM | EC90 [1]: > 4 µM | CC50 at 9 days [2]: > 100 µM | EC50 [4]: < 5000 nM | EC90 [4]: > 5 µM | CC50 at 3 days [5]: 5.3 µM | Toxicity LD50 (MTT) [3]: >50 µg/mL

O=C(Nc1ncc(C(F)(F)F)s1)c1ccccc1O [Compound 2]
EC50 [1]: 3.2 to 4 µM | EC90 [1]: > 4 µM | CC50 at 9 days [2]: > 100 µM | EC50 [4]: 5 to 50 nM | EC90 [4]: 0.005 to 0.05 µM | CC50 at 3 days [5]: 0.46 µM | melting point: 260 to 264 °C (dec.)

CC(=O)Oc1ccccc1C(=O)Nc1nnc(C(F)(F)F)s1 [Compound 5]
EC50 [1]: > 4 µM | EC90 [1]: > 4 µM | CC50 at 9 days [2]: > 100 µM | EC50 [4]: < 5000 nM | EC90 [4]: > 5 µM | CC50 at 3 days [5]: 15 µM | Toxicity LD50 (MTT) [8]: >50 µg/mL | Toxicity LD50 (MTT) [9]: >50 µg/mL
